Read-outs that look alike come from different tables or passages of the source. Starred links: 1 amine or outer side, 2 acyl side, 3 side chain; linkers in the order of their positions; H or OH if unused. Non-standard residues stand in square brackets, D forms with d. Residues, ends and D or L forms follow the SMILES beside them. Groups on a side chain read outwards from the residue. No end group written: not given here. *: point of attachment. C20 diacid = O=C(O)CCCCCCCCCCCCCCCCCCC(=O)*; C18 diacid = O=C(O)CCCCCCCCCCCCCCCCC(=O)*; Phe(4-CN) = N#Cc1ccc(C[C@H](N)C(=O)O)cc1; αMePhe(2-F) = C[C@](N)(Cc1ccccc1F)C(=O)O; γGlu = O=C(O)[C@H](CCC(=O)[*:2])N[*:1]; αMe4Pal = C[C@](N)(Cc1ccncc1)C(=O)O; αMeY = C[C@](N)(Cc1ccc(O)cc1)C(=O)O; 4Pal = N[C@@H](Cc1ccncc1)C(=O)O; αMeL = CC(C)C[C@](C)(N)C(=O)O; αMeS = C[C@](N)(CO)C(=O)O; Orn = NCCC[C@H](N)C(=O)O; AEEA = NCCOCCOCC(=O)O; Aib = CC(C)(N)C(=O)O
Key:
Type in all cases: cell-based
hGIPR [1] = molecular target: T1, hGIPR (Homo sapiens, UniProt P48546); assay: Functional cAMP activity in the presence of 1% HSA
T1 sequence (P48546 22-466): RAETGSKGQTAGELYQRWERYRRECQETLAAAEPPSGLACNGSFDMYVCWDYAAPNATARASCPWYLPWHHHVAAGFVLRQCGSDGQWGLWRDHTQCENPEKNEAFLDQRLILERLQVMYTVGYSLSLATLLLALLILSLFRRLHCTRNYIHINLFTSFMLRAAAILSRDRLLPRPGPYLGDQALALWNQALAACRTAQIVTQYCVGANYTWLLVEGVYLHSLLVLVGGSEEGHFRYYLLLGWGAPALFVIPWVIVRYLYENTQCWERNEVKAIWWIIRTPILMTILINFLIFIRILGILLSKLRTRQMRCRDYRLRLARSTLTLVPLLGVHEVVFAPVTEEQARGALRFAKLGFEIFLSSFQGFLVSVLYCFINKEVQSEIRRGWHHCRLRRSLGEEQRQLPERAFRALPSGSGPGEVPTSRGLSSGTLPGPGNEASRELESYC

hGLP-1R [2] = molecular target: T2, hGLP-1R (Homo sapiens, UniProt P43220); assay: Functional cAMP activity in the presence of 1% HSA
T2 sequence (P43220 24-463): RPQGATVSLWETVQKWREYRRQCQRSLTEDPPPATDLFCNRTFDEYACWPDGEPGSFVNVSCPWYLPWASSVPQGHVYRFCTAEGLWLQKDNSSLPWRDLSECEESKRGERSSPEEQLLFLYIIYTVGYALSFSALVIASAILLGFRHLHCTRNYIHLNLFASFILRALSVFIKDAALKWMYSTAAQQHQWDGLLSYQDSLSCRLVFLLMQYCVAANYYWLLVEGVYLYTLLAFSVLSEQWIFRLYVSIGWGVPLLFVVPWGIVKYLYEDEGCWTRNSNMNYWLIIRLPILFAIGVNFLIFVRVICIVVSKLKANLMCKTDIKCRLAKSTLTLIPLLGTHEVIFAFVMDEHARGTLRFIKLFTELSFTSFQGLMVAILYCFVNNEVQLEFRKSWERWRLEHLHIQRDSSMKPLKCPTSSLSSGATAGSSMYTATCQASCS

human GcgR = human GcgR (Homo sapiens, UniProt P47871); assay: Functional cAMP activity in the presence of 1% HSA
Chain of human GcgR (P47871 26-477): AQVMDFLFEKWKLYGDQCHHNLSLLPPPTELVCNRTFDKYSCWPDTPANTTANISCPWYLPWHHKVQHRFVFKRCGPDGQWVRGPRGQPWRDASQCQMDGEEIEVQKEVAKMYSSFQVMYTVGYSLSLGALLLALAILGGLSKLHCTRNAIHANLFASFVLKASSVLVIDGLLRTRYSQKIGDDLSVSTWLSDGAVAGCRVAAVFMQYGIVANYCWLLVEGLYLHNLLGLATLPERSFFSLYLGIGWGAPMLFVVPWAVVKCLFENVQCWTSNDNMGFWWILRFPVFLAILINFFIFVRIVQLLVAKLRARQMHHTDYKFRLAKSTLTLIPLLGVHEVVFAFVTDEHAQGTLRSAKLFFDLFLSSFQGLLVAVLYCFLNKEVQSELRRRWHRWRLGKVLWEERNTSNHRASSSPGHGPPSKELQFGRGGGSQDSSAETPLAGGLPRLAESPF

hGIPR [3] = molecular target: T1, hGIPR; assay: Functional cAMP activation in the presence of 0.1% casein (no HSA);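 on Relative cAMP EC50, hGIPR: intracellular cAMP rise after 30 min at 37 °C read by HTRF against a standard curve, scaled between buffer alone (0%) and top control ligand concentration (100%), four-parameter fit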;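 on Relative cAMP EC50, hGLP-1R: intracellular cAMP rise after 30 min at 37 °C read by HTRF, normalized between buffer only (0%) and maximal control ligand (100%), four-parameter variable-slope fit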;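 on Relative cAMP EC50, hGcgR: intracellular cAMP rise after 30 min at 37 °C, read by HTRF against a cAMP standard curve, scaled from buffer only (0%) to maximal control ligand response (100%)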
hGLP-1R [4] = molecular target: T2, hGLP-1R; assay: as above
hGcgR = hGcgR (Homo sapiens, UniProt P47871); assay: as above;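 further: intracellular cAMP rise after 30 min at 37 °C, read by HTRF against a cAMP standard curve, scaled from buffer only (0%) to maximal control ligand response (100%)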
Chain of hGcgR (P47871 26-477): as above
Experimental: After a 30-minute incubation at 37° C., the resulting increase in intracellular cAMP is quantitatively determined using the CisBio CAMP Dynamic 2 HTRF Assay Kit (62AM4PEJ). Briefly, cAMP levels within the cell are detected by adding the cAMP-d2 conjugate in cell lysis buffer followed by the antibody anti-cAMP-Eu^3+-Cryptate, also in cell lysis buffer.
Intracellular cAMP levels are determined by extrapolation using a standard curve. Dose response curves of compounds are plotted as the percentage of stimulation normalized to minimum (buffer only) and maximum (maximum concentration of each control ligand) values and analyzed using a four parameter non-linear regression fit with a variable slope (Genedata Screener 13). EC50 is the concentration of compound causing half-maximal simulation in a dose response curve. Each relative EC50 value for the Geometric mean calculation is determined from a curve fitting.

[5] = read-out: cAMP Rel EC50, hGLP-1R
[6] = in the presence of 0.1% casein (no HSA), geometric mean, read-out: Relative cAMP EC50, hGIPR
[7] = in the presence of 0.1% casein (no HSA), geometric mean, read-out: Relative cAMP EC50, hGLP-1R
[8] = in the presence of 0.1% casein (no HSA), geometric mean, read-out: Relative cAMP EC50, hGcgR
[9] = read-out: Relative cAMP EC50, hGIPR
[10] = read-out: Relative cAMP EC50, hGLP-1R
[11] = read-out: Relative cAMP EC50, hGcgR

Molecule | EC50 (hGIPR [1]; read-out: cAMP Rel EC50, hGIPR) [nM] | EC50 (hGLP-1R [2]; [5]) [nM] | EC50 (human GcgR; read-out: cAMP Rel EC50, hGcgR) [nM] | EC50 (hGIPR [3]; [6]) [nM] | EC50 (hGLP-1R [4]; [7]) [nM] | EC50 (hGcgR; [8]) [nM] | EC50 (hGIPR [1]) [nM] | EC50 (hGLP-1R [2]) [nM] | EC50 (human GcgR) [nM] | EC50 (hGIPR [3]) [nM] | EC50 (hGLP-1R [4]) [nM] | EC50 (hGcgR) [nM] | EC50 (hGIPR [3]; [9]) [nM] | EC50 (hGLP-1R [4]; [10]) [nM] | EC50 (hGcgR; [11]) [nM]
Y[Aib]QGTFTSDFS[Orn][αMeL]LDKK([AEEA-γGlu-C18 diacid])AQ[Aib]AFIEWLLEGGHSSGEPPPSGE-NH2 [Example 124] | 54.7 | 801 | 567 | 0.344 | 6.14 | 2.92 |  |  |  |  |  |  |  |  | 
H-Y[Aib]QGTFTSD[4Pal]S[Orn][αMeL]LD[Orn]K([γGlu-γGlu-C18 diacid])AQ[αMe4Pal]QFIE[αMeY]LLEGGPSSGAPPPSGSEE-NH2 [Example 975] |  |  |  |  |  |  | 30.1 | 1810 | 374 | 0.344 | 10.2 | 2.61 |  |  | 
H-Y[Aib]QGTFTSDFS[Orn][αMeL]LDKK([AEEA-γGlu-C20 diacid])AQ[Aib]AFIEYLLE[Aib]GPSSGAPPPSGS-NH2 [Example 73] | 57.9 | 810 | 1530 | 0.114 | 2.44 | 4.58 |  |  |  |  |  |  |  |  | 
H-Y[Aib]QGTFTSD[4Pal][αMeS]Q[αMeL]LD[Orn]K([dE-γGlu-C18 diacid])AQ[αMe4Pal]QFIQ[αMeY]LLE[Aib]GPSSGAPPPSGGGE-NH2 [Example 1138] | 3.4 | 164 | 72.8 | 0.0491 | 1.93 | 1.01 |  |  |  |  |  |  |  |  | 
H-Y[Aib]QGT[αMePhe(2-F)]TSDYSILLDKAAQK([AEEA-γGlu-C20 diacid])[Orn]FIEYLIEGGPSSGEPPPSEG-NH2 [Example 306] | 95.3 | 126 | 2820 | 0.142 | 0.335 | 5.8 |  |  |  |  |  |  |  |  | 
Y[Aib]QGTFTSD[4Pal]SQ[αMeL]LDKK([dE-γGlu-C18 diacid])AQ[αMe4Pal]AFIEYLIAGGPSSGAPPPSGEEE-NH2 [Example 1088] | 15.6 | 367 | 1710 | 0.182 | 2.99 | 14.8 |  |  |  |  |  |  |  |  | 
H-Y[Aib]QGT[αMePhe(2-F)]TSD[Phe(4-CN)]SILLDKQAQK([AEEA-AEEA-γGlu-C20 diacid])AFIEYLLEGGPSSGEPPPSAG-NH2 [Example 350] | 33.6 | 360 | 3760 | 0.106 | 0.776 | 10.4 |  |  |  |  |  |  |  |  | 
H-Y[Aib]QGT[αMePhe(2-F)]TSD[4Pal][αMeS]I[αMeL]LD[Orn]K([γGlu-γGlu-C18 diacid])AQ[Aib][Orn]FI[dE]YLIEGGPSSGEPPPSGTEE-NH2 [Example 535] | 1.16 | 29.9 | 238 |  |  |  |  |  |  |  |  |  | 0.0183 | 0.418 | 3.16
H-Y[Aib]QGT[αMePhe(2-F)]TSD[4Pal]SILLDKK([γGlu-γGlu-C18 diacid])AQ[Aib]AFIEWLEEGGPSSGAPPPSGTE-NH2 [Example 549] | 3.67 | 76.2 | 655 |  |  |  |  |  |  |  |  |  | 0.0255 | 0.395 | 3.41
H-Y[Aib]QGT[αMePhe(2-F)]TSD[4Pal]SILLDKK([γGlu-γGlu-C18 diacid])AQ[Aib]AFIEWLQEGGPSSGEPPPSGTEE-NH2 [Example 579] | 3.79 | 67.3 | 679 |  |  |  |  |  |  |  |  |  | 0.0171 | 0.252 | 2.36
Y[Aib]QGTFTSD[4Pal]SQ[αMeL]LDKK([γGlu-γGlu-C18 diacid])AQ[αMe4Pal]AFIE[αMe4Pal]LIE[Aib]GPSSGAPPPSGTE-NH2 [Example 1118] | 5.45 | 183 | 802 | 0.128 | 5.42 | 6.52 |  |  |  |  |  |  |  |  | 
CC[C@H](C)[C@H](NC(=O)[C@H](CC(C)C)NC(=O)[C@H](Cc1ccc(O)cc1)NC(=O)[C@@H](CCC(=O)O)NC(=O)[C@@H](NC(=O)[C@H](Cc1ccccc1)NC(=O)[C@H](CCCN)NC(=O)C(C)(C)NC(=O)[C@H](CCC(N)=O)NC(=O)[C@H](C)NC(=O)[C@H](CCCCNC(=O)COCCOCCNC(=O)CC[C@H](NC(=O)CCCCCCCCCCCCCCCCC(=O)O)C(=O)O)NC(=O)[C@H](CCCN)NC(=O)[C@H](CC(=O)O)NC(=O)[C@H](CC(C)C)NC(=O)[C@](C)(CC(C)C)NC(=O)[C@@H](NC(=O)[C@](C)(CO)NC(=O)[C@H](Cc1ccncc1)NC(=O)[C@H](CC(=O)O)NC(=O)[C@H](CO)NC(=O)[C@@H](NC(=O)[C@](C)(Cc1ccccc1F)NC(=O)[C@@H](NC(=O)CNC(=O)[C@H](CCC(N)=O)NC(=O)C(C)(C)NC(=O)[C@@H](N)Cc1ccc(O)cc1)[C@@H](C)O)[C@@H](C)O)[C@@H](C)CC)[C@@H](C)CC)C(=O)N[C@@H](CCC(=O)O)C(=O)NCC(=O)NCC(=O)N1CCC[C@H]1C(=O)N[C@@H](CO)C(=O)N[C@@H](CO)C(=O)NCC(=O)N[C@@H](CCC(=O)O)C(=O)N1CCC[C@H]1C(=O)N1CCC[C@H]1C(=O)N1CCC[C@H]1C(=O)N[C@@H](CCC(=O)O)C(N)=O [Example 458] (H-Y[Aib]QGT[αMePhe(2-F)]TSD[4Pal][αMeS]I[αMeL]LD[Orn]K([AEEA-γGlu-C18 diacid])AQ[Aib][Orn]FI[dE]YLIEGGPSSGEPPPE-NH2) | 8.07 | 22.7 | 319 |  |  |  |  |  |  |  |  |  | 0.0448 | 0.347 | 5.29
Y[Aib]QGTFTSD[4Pal]SR[αMeL]LDKK([γGlu-γGlu-C18 diacid])AQ[αMe4Pal]AFIE[αMe4Pal]LIEGGPSSGAPPPSGSEE-NH2 [Example 959] | 24.5 | 503 | 316 | 0.217 | 5.06 | 2.61 |  |  |  |  |  |  |  |  | 
H-Y[Aib]QGTFTSDFS[Orn][αMeL]LDKK([AEEA-γGlu-C18 diacid])AQ[Aib]AFIEYLLEGGPSSGAPPPGGE-NH2 [Example 63] | 40.4 | 348 | 709 | 0.255 | 4.78 | 4.1 |  |  |  |  |  |  |  |  | 
H-Y[Aib]QGT[αMePhe(2-F)]TSD[4Pal]SI[αMeL]LD[Orn]K([γGlu-γGlu-C18 diacid])AQ[αMe4Pal][Orn]FI[dE]YLIEGGPSSGEPPPEGT-NH2 [Example 541] | 1.28 | 38.7 | 520 |  |  |  |  |  |  |  |  |  | 0.0213 | 0.74 | 4.26
